Data from article PMC8111447 (Frontiers in Pharmacology, 2021).
Read-outs that look alike come from different tables or passages of the source.

Key:
[1] = design: method as in earlier work; details: main metabolites of osimertinib, ref Cheng et al., 2016, Dickinson et al., Vishwanathan et al., 2019; cited from earlier work
[2] = tested on: EGFR T790M; design: method as in Cross et al., 2014; details: ref Cross et al., 2014; cited from earlier work
[3] = tested on: A431 (wild-type EGFR) tumor xenografts; assay: A431 xenograft model; format: in vivo, Nu/Nu nude mice; details: 30 mg/kg
Method: The female Nu/Nu nude mice were purchased from Beijing Vital River Laboratories. […] Nu/Nu nude mice were purchased from the Beijing Vital River Laboratories of China. The 6–8 weeks old female mice were inoculated subcutaneously at the right flank with approximately 3–5 × 10^6 tumor cells in 0.2 ml of medium. The treatments were started when the tumor size reached approximately 200 mm^3. […] All mice were orally administrated once daily for consecutive 14 days. Mouse body weight, tumor weight and tumor volume (TV) were measured twice per week. TV was then used for the calculation of tumor inhibitory rate and tumor regression rate.

[4] = tested on: NSCLC patients; details: cited from earlier work
[5] = tested on: NCI-H1975 (EGFR^L858R/T790M); assay: Cell proliferation assay (CTG, 72 h); format: cell-based; details: Homo sapiens, NCI-H1975 cells, mean ± SD, n = 3
Method: (§1) Human lung cancer cell lines (NCI-H1975, H3255 and A431) were obtained from the American Type Culture Collection (ATCC), while PC-9 cell line was supplied by the European Collection of Authenticated Cell Cultures (ECACC). For in vivo implantation, NCI-H1975, H3255 and PC-9 cells were cultured in RPMI1640 (Invitrogen) supplemented with 10% v/v fetal calf serum (Sigma-Aldrich) and 2 mmol/L L-glutamine (Invitrogen). A431 cells were cultured in DMEM (Invitrogen) supplemented with 10% v/v fetal calf serum and 2 mmol/L v/v L-glutamine. All cell lines were then cultured in a humidified incubator with 5% CO2 at 37°C.
(§2) Test compounds were dissolved in DMSO as a 10 mmol/L stock solution. The initial concentration of compounds were 10 μmol/L and the 3-fold dilution was nine times. […] Plate was shaked for 2 min and the mixture was incubated at room temperature for 10 min.
(§3) The half-maximal inhibition concentration (IC50) values were processed by GraphPad Prism7 (GraphPad Software; La Jolla, CA).

[6] = tested on: A431 (EGFR^WT); assay: Cell proliferation assay (CTG, 72 h); format: cell-based; details: Homo sapiens, A-431, A431 cells, mean ± SD, n = 3
Method: as §1, §2, §3

[7] = tested on: H3255 (EGFR^L858R); assay: Cell proliferation assay (CTG, 72 h); format: cell-based, human; details: Homo sapiens, NCI-H3255; H3255 cells, 72 h; mean ± SD, n = 3
Method: as §1, §2, §3

[8] = tested on: PC-9 (EGFR^d746–750); assay: Cell proliferation assay (CTG, 72 h); format: cell-based, human; details: Homo sapiens; PC-9 cells, 72 h; mean ± SD, n = 3
Method: as §1, §2, §3

[9] = NSCLC patients with EGFR T790M mutation, ref Jänne et al., 2015, Mok et al., 2017

For `C=CC(=O)Nc1cc(Nc2nccc(-c3c[nH]c4ccccc34)n2)c(OC)cc1N(C)CCN(C)C` [AZ5104], the “metabolite level relative to the parent drug” value [1] is given as “about 10%” and the “fold more active on EGFR T790M than osimertinib” value [2] is given as 8 fold.

In the case of `C=CC(=O)Nc1cc(Nc2nccc(-c3cn(C)c4ccccc34)n2)c(OC)cc1N(C)CCNC` [AZ7550], the “metabolite level relative to the parent drug” value [1] is given as “about 10%”.

With `CN(C)C/C=C/C(=O)Nc1cc2c(Nc3ccc(F)c(Cl)c3)ncnc2cc1O[C@H]1CCOC1` [afatinib, reference compound] the body weight [3] was “severe body loss”.

For `C=CC(=O)Nc1cc(Nc2nccc(-c3cn(C)c4ccccc34)n2)c(OC)cc1N(C)CCN(C)C` [Osimertinib], the ORR [4, 9] is given as 70%, the “median PFS” value [4, 9] is given as 9.9 months and the “efficacy compared to the first-line EGFR TKIs” value ([4]; advanced NSCLC patients with EGFR mutations, comparator 10.2 months, ref Soria et al., 2018, Ramalingam et al., 2020) is given as 18.9 months. The overall survival ([4]; advanced NSCLC patients with EGFR mutations, comparator group 31.8 months, ref Soria et al., 2018, Ramalingam et al., 2020) was 38.6 months, the ORR ([4]; second-line, locally advanced or metastatic NSCLC progressed on prior EGFR TKI, ref Goss et al., 2016, Mok et al., 2017) was 70% and the IC50 [5] was […]. For the same compound, the IC50 [6] was […], the IC50 [7] was 17.8 ± 0.5 nM and the IC50 [8] was 14.2 ± 1.63 nM.
